Laboratory results published in patent publication US12599136B2, “Substituted isophthalic acid diamides and their use as herbicides” (Bayer Aktiengesellschaft, priority 2020, dated 2026).

Legend:
Assay type in all cases: in vivo
Echinochloa crus-galli [1] = experiment: Pre-emergence herbicidal action against ECHCG; conditions: 320 g/ha; visual score after 3 weeks vs untreated controls
Outline: (§1)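 Sandy loam pots, seeds covered with soil, then surface-treated with WP or EC formulations at 600–800 l/ha water plus 0.2% wetting agent. Greenhouse, 3 weeks. Percent damage vs untreated controls.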

Matricaria inodora [2] = experiment: Pre-emergence herbicidal action against MATIN; conditions: visual score after 3 weeks vs untreated controls
Outline: as §1

Setaria viridis [3] = experiment: Pre-emergence herbicidal action against SETVI
Outline: as §1

Echinochloa crus-galli [4] = experiment: Post-emergence herbicidal action against ECHCG; conditions: visual assessment about 3 weeks after treatment
Outline: (§2)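 Visual % rating (0% = as untreated, 100% = dead) ~3 wk after spraying one-leaf-stage plants grown in sandy loam; WP/EC in water at 600–800 l/ha, 0.2% wetting agent.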

Veronica persica [5] = experiment: Pre-emergence herbicidal action against VERPE; conditions: 320 g/ha
Outline: as §1

Viola tricolor [6] = experiment: Pre-emergence herbicidal action against VIOTR
Outline: as §1

Alopecurus myosuroides [7] = experiment: Pre-emergence herbicidal action against ALOMY; conditions: visual score after 3 weeks vs untreated controls
Outline: as §1

Abutilon theophrasti [8] = experiment: Pre-emergence herbicidal action against ABUTH; conditions: visual score after 3 weeks vs untreated controls
Outline: as §1

Alopecurus myosuroides [9] = experiment: Post-emergence herbicidal action against ALOMY
Outline: as §2

Cyperus esculentus [10] = experiment: Post-emergence herbicidal action against CYPES; conditions: 80 g/ha, visual assessment about 3 weeks after treatment
Method: (§3) Seeds of monocotyledonous and dicotyledonous weed and crop plants are laid out in sandy loam soil in wood-fiber pots, covered with soil and cultivated in a greenhouse under good growth conditions. 2 to 3 weeks after sowing, the test plants are treated at the one-leaf stage. The compounds of the invention, formulated in the form of wettable powders (WP) or as emulsion concentrates (EC), are then sprayed onto the green parts of the plants in the form of an aqueous suspension or emulsion at a water application rate equivalent to 600 to 800 l/ha, with addition of 0.2% wetting agent. After the test plants have been left to stand in the greenhouse under optimal growth conditions for about 3 weeks, the action of the preparations is assessed visually in comparison to untreated controls (herbicidal action in percent (%): 100% activity=the plants have died, 0% activity=like control plants). […] The tables below illustrate, in an illustrative manner, the post-emergence herbicidal action of the compounds of the invention, the herbicidal activity being stated in percent.

Pharbitis purpurea [11] = experiment: Pre-emergence herbicidal action against PHBPU; conditions: 320 g/ha; visual score after 3 weeks vs untreated controls
Outline: as §1

Setaria viridis [12] = experiment: Post-emergence herbicidal action against SETVI; conditions: visual assessment about 3 weeks after treatment
Outline: as §2

Stellaria media [13] = experiment: Post-emergence herbicidal action against STEME; conditions: visual assessment about 3 weeks after treatment
Outline: as §2

Hordeum murinum = experiment: Pre-emergence herbicidal action against HORMU; conditions: visual score after 3 weeks vs untreated controls
Outline: as §1

Avena fatua [14] = experiment: Post-emergence herbicidal action against AVEFA; conditions: visual assessment about 3 weeks after treatment
Outline: as §2

Amaranthus retroflexus [15] = experiment: Post-emergence herbicidal action against AMARE; conditions: visual assessment about 3 weeks after treatment
Outline: as §2

Lolium rigidum [16] = experiment: Pre-emergence herbicidal action against LOLRI
Outline: as §1

Stellaria media [17] = experiment: Pre-emergence herbicidal action against STEME
Outline: as §1

Matricaria inodora [18] = experiment: Post-emergence herbicidal action against MATIN; conditions: 80 g/ha, visual assessment about 3 weeks after treatment
Outline: as §2

Abutilon theophrasti [19] = experiment: Post-emergence herbicidal action against ABUTH
Outline: as §2

Polygonum convolvulus [20] = experiment: Pre-emergence herbicidal action against POLCO
Outline: as §1

Pharbitis purpurea [21] = experiment: Post-emergence herbicidal action against PHBPU; conditions: visual assessment about 3 weeks after treatment
Outline: as §2

Avena fatua [22] = experiment: Pre-emergence herbicidal action against AVEFA; conditions: visual score after 3 weeks vs untreated controls
Outline: as §1

Viola tricolor [23] = experiment: Post-emergence herbicidal action against VIOTR; conditions: 80 g/ha
Outline: as §2

Lolium rigidum [24] = experiment: Post-emergence herbicidal action against LOLRI
Method: as §3

Veronica persica [25] = experiment: Post-emergence herbicidal action against VERPE; conditions: visual assessment about 3 weeks after treatment
Outline: as §2

Amaranthus retroflexus [26] = experiment: Pre-emergence herbicidal action against AMARE; conditions: visual score after 3 weeks vs untreated controls
Outline: as §1

Cyperus esculentus [27] = experiment: Pre-emergence herbicidal action against CYPES; conditions: visual score after 3 weeks vs untreated controls
Outline: as §1

Polygonum convolvulus [28] = experiment: Post-emergence herbicidal action against POLCO; conditions: visual assessment about 3 weeks after treatment
Outline: as §2

For Cn1nnnc1NC(=O)c1ccc(C(F)(F)F)c(C(=O)N2CCCC2)c1Cl [Example 1-152], the “Pre-emergence action against ECHCG” value (Echinochloa crus-galli [1]) was 100%, the “Pre-emergence action against MATIN” value (Matricaria inodora [2]; 20 g/ha) was 100% and the “Pre-emergence action against MATIN” value (Matricaria inodora [2]; 80 g/ha) was 100%. The “Pre-emergence action against MATIN” value (Matricaria inodora [2]; 320 g/ha) was 100%, the “Pre-emergence action against SETVI” value (Setaria viridis [3]; 20 g/ha) was 100% and the “Pre-emergence action against SETVI” value (Setaria viridis [3]; 80 g/ha) was 100%. The “Pre-emergence action against SETVI” value (Setaria viridis [3]; 320 g/ha) was 100%, the “Post-emergence action against ECHCG in %” value (Echinochloa crus-galli [4]; 5 g/ha) was 80% and the “Post-emergence action against ECHCG in %” value (Echinochloa crus-galli [4]; 20 g/ha) was 90%. For the same molecule, the “Post-emergence action against ECHCG in %” value (Echinochloa crus-galli [4]; 80 g/ha) was 100%, the “Pre-emergence action against VERPE” value (Veronica persica [5]) was 90% and the “Pre-emergence action against VIOTR” value (Viola tricolor [6]; 80 g/ha) was 100%. The “Pre-emergence action against VIOTR” value (Viola tricolor [6]; 320 g/ha) was 100%, the “Pre-emergence action against ALOMY” value (Alopecurus myosuroides [7]; 20 g/ha) was 80% and the “Pre-emergence action against ALOMY” value (Alopecurus myosuroides [7]; 80 g/ha) was 90%. The “Pre-emergence action against ALOMY” value (Alopecurus myosuroides [7]; 320 g/ha) was 100%, the “Pre-emergence action against ABUTH” value (Abutilon theophrasti [8]; 20 g/ha) was 100% and the “Pre-emergence action against ABUTH” value (Abutilon theophrasti [8]; 80 g/ha) was 100%. For the same molecule, the “Pre-emergence action against ABUTH” value (Abutilon theophrasti [8]; Dosage column 320 g/ha (heading prints 3200 g/ha)) was 100%, the “Post-emergence action against ALOMY” value (Alopecurus myosuroides [9]; 20 g/ha) was 80% and the “Post-emergence action against ALOMY” value (Alopecurus myosuroides [9]; 80 g/ha) was 90%. For the same molecule, the “Post-emergence action against CYPES in %” value (Cyperus esculentus [10]) was 80%, the “Pre-emergence action against PHBPU” value (Pharbitis purpurea [11]) was 80% and the “Post-emergence action against SETVI in %” value (Setaria viridis [12]; 5 g/ha) was 100%. The “Post-emergence action against SETVI in %” value (Setaria viridis [12]; 20 g/ha) was 100%, the “Post-emergence action against SETVI in %” value (Setaria viridis [12]; 80 g/ha) was 100% and the “Post-emergence action against STEME in %” value (Stellaria media [13]; 5 g/ha) was 90%. The “Post-emergence action against STEME in %” value (Stellaria media [13]; 20 g/ha) was 90%, the “Post-emergence action against STEME in %” value (Stellaria media [13]; 80 g/ha) was 100% and the “Pre-emergence action against HORMU” value (Hordeum murinum; 80 g/ha) was 90%. The “Pre-emergence action against HORMU” value (Hordeum murinum; 320 g/ha) was 100%, the “Post-emergence action against AVEFA in %” value (Avena fatua [14]; 20 g/ha) was 90% and the “Post-emergence action against AVEFA in %” value (Avena fatua [14]; 80 g/ha) was 100%. For the same molecule, the “Post-emergence action against AMARE in %” value (Amaranthus retroflexus [15]; 5 g/ha) was 100%, the “Post-emergence action against AMARE in %” value (Amaranthus retroflexus [15]; 20 g/ha) was 100% and the “Post-emergence action against AMARE in %” value (Amaranthus retroflexus [15]; 80 g/ha) was 100%. The “Pre-emergence action against LOLRI” value (Lolium rigidum [16]; 80 g/ha) was 80%, the “Pre-emergence action against LOLRI” value (Lolium rigidum [16]; 320 g/ha) was 100% and the “Pre-emergence action against STEME” value (Stellaria media [17]; 20 g/ha) was 90%. For the same molecule, the “Pre-emergence action against STEME” value (Stellaria media [17]; 80 g/ha) was 100%, the “Pre-emergence action against STEME” value (Stellaria media [17]; 320 g/ha) was 100% and the “Post-emergence action against MATIN in %” value (Matricaria inodora [18]) was 90%. For the same molecule, the “Post-emergence action against ABUTH” value (Abutilon theophrasti [19]; 5 g/ha) was 100%, the “Post-emergence action against ABUTH” value (Abutilon theophrasti [19]; 20 g/ha) was 100% and the “Post-emergence action against ABUTH” value (Abutilon theophrasti [19]; 80 g/ha) was 100%. For the same molecule, the “Pre-emergence action against POLCO” value (Polygonum convolvulus [20]; 80 g/ha) was 80%, the “Pre-emergence action against POLCO” value (Polygonum convolvulus [20]; 320 g/ha) was 100% and the “Post-emergence action against PHBPU in %” value (Pharbitis purpurea [21]; 5 g/ha) was 80%. For the same molecule, the “Post-emergence action against PHBPU in %” value (Pharbitis purpurea [21]; 20 g/ha) was 90%, the “Post-emergence action against PHBPU in %” value (Pharbitis purpurea [21]; 80 g/ha) was 90% and the “Pre-emergence action against AVEFA” value (Avena fatua [22]; 80 g/ha) was 100%. For the same molecule, the “Pre-emergence action against AVEFA” value (Avena fatua [22]; 320 g/ha) was 100%, the “Post-emergence action against VIOTR in %” value (Viola tricolor [23]) was 90% and the “Post-emergence action against LOLRI in %” value (Lolium rigidum [24]; 20 g/ha) was 90%. The “Post-emergence action against LOLRI in %” value (Lolium rigidum [24]; 80 g/ha) was 100%, the “Post-emergence action against VERPE in %” value (Veronica persica [25]; 20 g/ha) was 90% and the “Post-emergence action against VERPE in %” value (Veronica persica [25]; 80 g/ha) was 90%. For the same molecule, the “Pre-emergence action against AMARE” value (Amaranthus retroflexus [26]; 20 g/ha) was 100%, the “Pre-emergence action against AMARE” value (Amaranthus retroflexus [26]; 80 g/ha) was 100% and the “Pre-emergence action against AMARE” value (Amaranthus retroflexus [26]; 320 g/ha) was 100%. The “Pre-emergence action against CYPES” value (Cyperus esculentus [27]; 80 g/ha) was 90%, the “Pre-emergence action against CYPES” value (Cyperus esculentus [27]; 320 g/ha) was 100% and the “Post-emergence action against POLCO in %” value (Polygonum convolvulus [28]; 5 g/ha) was 80%. The “Post-emergence action against POLCO in %” value (Polygonum convolvulus [28]; 80 g/ha) was 80%.
